Earlier results, collected in patent US20020127223A1, “Method for reducing side effects of a drug” (priority 1984, published 2002).

Details: administered 3 hours following methotrexate

For `Nc1nc(=O)c2c([nH]1)NCC(CNc1ccc(C(=O)N[C@@H](CCC(=O)O)C(=O)O)cc1)N2C=O` (mixture of isomers) [folinic acid], the “Attenuation of the toxic effects of methotrexate” value is listed as “attenuate the toxic effects of methotrexate”.
